Experimental data as given in publication PMC4990184, “The Tp0684 (MglB-2) Lipoprotein of Treponema pallidum: A Glucose-Binding Protein with Divergent Topology” (PLoS ONE, 2016).
Like-named read-outs stand apart in the source and are kept apart here.

Assays:
[1] = target: T1, TpMglB-2 (Tp0684), wild-type (Treponema pallidum, UniProt Q08255); assay: Isothermal titration calorimetry (ITC) of sugars into wild-type TpMglB-2; format: binding; conditions: for binding heats in ITC control titrations: wild-type TpMglB-2, qualitative
T1 construct: the DNA fragment encoding amino acid residues 11–378 (cloned without the post-translationally modified N-terminal Cys); made in house; host or cells: E. coli BL21 AI (co-transformed with pGroESL)
Protocol: (§1) TpMglB-2 was dialyzed exhaustively against Assay Buffer (10 mM sodium phosphate, pH 7.4, 100 mM NaCl). The sugars to be titrated were dissolved in the same buffer. All titrations were carried out in an iTC200 calorimeter (Malvern, Malvern, UK). A typical titration scheme featured 19 or 20 2-μL injections of 500 μM of the monosaccharide into 50 μM protein in the ca. 200-μL stirred interaction cell. However, the concentrations were sometimes altered to sample a wider range of concentration space. Three titrations were performed per sugar, and the resulting thermograms were serially integrated using NITPIC v. 1.1.7 [54, 78]. All titrations for a given sugar were globally analyzed in ITCsy[55], and confidence intervals were obtained using the error-surface projection method. All ITC illustrations were rendered in GUSSI [79].

TpMglB-2 [2] = target: T2, TpMglB-2 (Treponema pallidum, UniProt Q08255); assay: Differential scanning fluorimetry (DSF) carbon-source screen; format: binding; conditions: for shift in Tm, app: 10 μM protein, BIOLOG compounds, vs water control; for binding in the DSF assay: qualitative
T2 construct: the DNA fragment encoding amino acid residues 11–378 (cloned without the post-translationally modified N-terminal Cys); made in house; host or cells: E. coli BL21 AI (co-transformed with pGroESL)
Description: The unconventional structural organization and the altered Ca^2+-binding site of TpMglB-2 provoked a question: does such a structurally rearranged LBP function similarly to other LBPs? To address this question, we first examined ligand binding. In a previous study on TpMglB-2, we reported that the protein preferred D-glucose and D-galactose over a small number of other monsaccharide carbon sources. However, we wished to interrogate a larger panel of such sources to investigate whether another ligand would bind to the protein with even higher affinity. We thus employed differential scanning fluorimetry (DSF) as a means to probe for ligand binding. This method examines the apparent melting temperature (Tm, app) of the protein; the “apparent” nomenclature is added in recognition of the fact that the reversibility of the transition was not tested in these experiments. Presumably, in the presence of a specifically bound ligand, the protein’s structure will be stabilized, resulting in a higher Tm, app. We used this plate-based method to qualitatively assay for the binding of 190 carbon sources. Only D-glucose and D-galactose caused significant shifts (> 1.5° C) in Tm, app (Fig 5). Thus, these were the only candidate compounds that were selected for additional study.
The thermal stability of TpMglB-2 in the presence of various putative ligands was determined in a 96-well PCR-plate (Bio-Rad Laboratories, Inc., Hercules, CA). The assumption was that binding ligands would enhance the thermal stability of the protein. For carbon-source screening, Biolog's Phenotype MicroArray (PM) compounds supplied in 96-well microplates (BIOLOG, Inc., Hayward, CA) were dissolved in 50 μL of sterile water to obtain a final concentration of around 10–20 mM. Screenings were performed with plates PM1 and PM2A. Each plate contains 95 compounds and a blank (no ligand) control. The complete plate contents are available at the BIOLOG website (www.biolog.com).
Each 20 μL standard assay mixture in a 96-well PCR-plate contained 10 μM purified protein and SYPRO Orange (Life Technologies) at 5x concentration in a buffer containing 10 mM phosphate, 100 mM NaCl, pH 7.4. Two μL of the resuspended BIOLOG compounds were added to each well. The plate was sealed and placed in a BioRad CFX96 real-time PCR detector coupled to a C1000 thermal cycler (BioRad Laboratories, Inc., Hercules, CA), and the fluorescence of the dye was monitored as a function of temperature from 4° C to 95° C. Fluorescence readings were recorded every 0.5° C. The data were transformed to–dF/dT v. T curves, and the abscissas of the minima in these curves were defined as the apparent melting temperatures (Tm, app). Significant positive shifts in Tm, app were taken as positive results and were confirmed using ITC.

TpMglB-2 [3] = target: T2, TpMglB-2
TpMglB-2 F313A = target: T3, TpMglB-2 F313A (Treponema pallidum, UniProt Q08255, F338A); assay: ITC of D-glucose into TpMglB-2 F313A variant; format: binding; set-up: key: NH: No observable heat of ligand binding
T3 construct: the DNA fragment encoding amino acid residues 11–378 (cloned without the post-translationally modified N-terminal Cys); made in house; host or cells: E. coli BL21 AI
Protocol: (§2) For the construction of the recombinant TpMglB-2 variants, the N19A, W145A, D195A and F313A mutation was individually introduced into the plasmid carrying the wild-type tp0684 sequence using the QuikChange site-directed mutagenesis kit (Agilent Technologies, Santa Clara, CA). The mutation was confirmed by DNA sequencing. The mutant protein was expressed and purified as described above. Protein concentrations were determined in buffer A (20 mM Hepes, 0.1 M NaCl, pH 7.5, 2 mM n-Octyl-β-D-glucopyranoside) using spectrophotometry. Extinction coefficients were calculated using the Protparam tool of ExPASy (www.expasy.org).
as §1, with “All ITC illustrations were rendered in GUSSI [79].” left out

TpMglB-2 W145A = target: T4, TpMglB-2 W145A (Treponema pallidum, UniProt Q08255, W170A); assay: ITC of D-glucose into TpMglB-2 W145A variant; format: binding
T4 construct: the DNA fragment encoding amino acid residues 11–378 (cloned without the post-translationally modified N-terminal Cys); made in house; host or cells: E. coli BL21 AI
Protocol: as §2
as §1, with “All ITC illustrations were rendered in GUSSI [79].” left out

TpMglB-2 [4] = target: T2, TpMglB-2; assay: Difference sedimentation velocity; conditions: for Δs/s¯: 5 mg/mL TpMglB-2, 95% confidence interval in brackets
Protocol: Minute sedimentation-coefficient differences are readily detected using a method pioneered in H. Schachman’s lab called “difference sedimentation velocity” [64]. This method provides a direct, side-by-side comparison of the sedimentation velocity of two macromolecular solutes. In brief, two samples of 5 mg/mL TpMglB-2 were prepared. To one sample, a non-binding sugar, either D-mannose or D-ribose (these sugars evidenced no binding in neither the DSF nor ITC assays), was introduced, whereas an identical concentration of D-glucose was added to the other. The protein sample with the non-binding sugar was placed in the reference sector of a centrifugation centerpiece, and the sample sector of the same centerpiece was filled with the D-glucose-containing protein solution. Centrifugation was initiated, and Rayleigh laser interferometry was used to monitor the sedimentation. Because this mode of data collection reports on refractive-index differences between the two sectors, the difference between the sedimentation in the two sectors is recorded. This signal (for unequal solution-column heights) will appear roughly as a Gaussian-shaped curve inverted about the radial axis (Fig 8A). If the macromolecular solutes in each sector sediment at different rates, the absolute value of the area of (or, more specifically, the normalized first moment of) this curve will increase as sedimentation continues. This trend reports on the fractional sedimentation-coefficient difference between the solutes in the reference and sample sectors, termed Δs/s¯ , i.e. the change in s normalized by the mean s-value. […]
For difference SV studies, a slightly different protocol was followed. […] Sedimentation and sedimentation differences were monitored using the interference optics only; scans were obtained every 60 s for almost 17 h.
As presented by the data-acquisition software, interference data have the amount of fringe displacement, J, on the y-axis and the radius from the center of rotation on x-axis (r). In this case, of course, the difference in fringe displacement, ΔJ, was measured. […]

TpMglB-2 N19A = target: T5, TpMglB-2 N19A (Treponema pallidum, UniProt Q08255, N44A); assay: ITC of D-glucose into TpMglB-2 N19A variant; format: binding; set-up: key: NH: No observable heat of ligand binding
T5 construct: the DNA fragment encoding amino acid residues 11–378 (cloned without the post-translationally modified N-terminal Cys); made in house; host or cells: E. coli BL21 AI
Protocol: as §2
as §1, with “All ITC illustrations were rendered in GUSSI [79].” left out

TpMglB-2 [5] = target: T2, TpMglB-2; assay: Sedimentation velocity analytical ultracentrifugation (conventional SV); conditions: 100 μM D-glucose, 20° C; 95% confidence interval in brackets; apo-TpMglB-2 3.212 S
Protocol: Our initial attempt to examine whether this small difference could be detected was conducted using conventional SV. In experiments carried out simultaneously, we sedimented apo-TpMglB-2 and also the protein in the presence of 100 μM D-glucose. By analyzing the data with a non-interacting discrete species model, we could perform a careful analysis using F-statistics that would establish realistic 95% confidence intervals (shown below in brackets) on the refined parameter s. For apo-TpMglB-2, the refined experimental s-value was 3.212 [3.204–3.219] S. The same value of the protein in the presence of D-glucose was 3.292 [3.288–3.297] S. We can estimate the statistical significance of this difference the F-statistic formalism. If we fix the s-value of the apo-protein to that of the liganded protein and repeat the analysis, we arrive at a χ^2 ratio between the two analyses of 1.86. […]
All AUC experiments were carried out at 20° C in a Beckman-Coulter Optima XL-I centrifuge (Beckman-Coulter Inc., Indianapolis, IN), and Assay Buffer was used in all cases. […] Centrifugation continued for about 16 h, and concentration-profile data were collected using both absorbance and interference optics. Data were initially analyzed using the c(s) method in SEDFIT [82, 83]. As warranted, data were also analyzed using a discrete-species model in SEDPHAT [62].

TpMglB-2 D195A = target: T6, TpMglB-2 D195A (Treponema pallidum, UniProt Q08255, D220A); assay: ITC of D-glucose into TpMglB-2 D195A variant; format: binding; set-up: key: NH: No observable heat of ligand binding
T6 construct: the DNA fragment encoding amino acid residues 11–378 (cloned without the post-translationally modified N-terminal Cys); made in house; host or cells: E. coli BL21 AI
Protocol: as §2
as §1, with “All ITC illustrations were rendered in GUSSI [79].” left out

T2 sequence (Q08255 36-403): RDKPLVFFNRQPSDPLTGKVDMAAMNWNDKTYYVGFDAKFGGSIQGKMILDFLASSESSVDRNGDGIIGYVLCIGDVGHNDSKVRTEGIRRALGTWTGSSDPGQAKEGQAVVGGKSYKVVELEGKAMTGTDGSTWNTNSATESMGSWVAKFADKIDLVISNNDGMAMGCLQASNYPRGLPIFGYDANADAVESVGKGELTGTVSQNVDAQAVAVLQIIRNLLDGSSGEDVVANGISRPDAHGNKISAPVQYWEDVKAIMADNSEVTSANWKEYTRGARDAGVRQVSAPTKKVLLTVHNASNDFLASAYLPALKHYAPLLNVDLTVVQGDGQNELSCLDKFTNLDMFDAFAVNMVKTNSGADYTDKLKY
T1 sequence (Q08255 36-403): as above
T4 sequence (Q08255 36-403 W170A): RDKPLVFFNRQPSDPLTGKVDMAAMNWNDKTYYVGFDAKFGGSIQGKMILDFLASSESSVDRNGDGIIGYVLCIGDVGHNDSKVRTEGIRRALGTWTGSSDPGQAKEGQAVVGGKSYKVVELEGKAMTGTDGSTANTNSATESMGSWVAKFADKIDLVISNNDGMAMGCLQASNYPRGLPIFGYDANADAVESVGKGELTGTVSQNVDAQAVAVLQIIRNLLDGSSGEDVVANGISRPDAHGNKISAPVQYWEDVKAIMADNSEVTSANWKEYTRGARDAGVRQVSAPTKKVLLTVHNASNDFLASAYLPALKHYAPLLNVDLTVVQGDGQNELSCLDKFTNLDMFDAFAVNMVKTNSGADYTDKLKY
T3 sequence (Q08255 36-403 F338A): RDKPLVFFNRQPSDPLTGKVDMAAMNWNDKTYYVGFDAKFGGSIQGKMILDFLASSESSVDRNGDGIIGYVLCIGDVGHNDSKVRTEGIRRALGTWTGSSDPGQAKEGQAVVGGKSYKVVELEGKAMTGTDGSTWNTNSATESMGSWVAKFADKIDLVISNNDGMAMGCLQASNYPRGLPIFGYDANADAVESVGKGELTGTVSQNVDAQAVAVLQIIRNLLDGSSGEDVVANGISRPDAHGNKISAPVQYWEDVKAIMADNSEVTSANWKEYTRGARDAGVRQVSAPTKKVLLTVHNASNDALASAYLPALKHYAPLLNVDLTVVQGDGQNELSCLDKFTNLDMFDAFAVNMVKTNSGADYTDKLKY
T5 sequence (Q08255 36-403 N44A): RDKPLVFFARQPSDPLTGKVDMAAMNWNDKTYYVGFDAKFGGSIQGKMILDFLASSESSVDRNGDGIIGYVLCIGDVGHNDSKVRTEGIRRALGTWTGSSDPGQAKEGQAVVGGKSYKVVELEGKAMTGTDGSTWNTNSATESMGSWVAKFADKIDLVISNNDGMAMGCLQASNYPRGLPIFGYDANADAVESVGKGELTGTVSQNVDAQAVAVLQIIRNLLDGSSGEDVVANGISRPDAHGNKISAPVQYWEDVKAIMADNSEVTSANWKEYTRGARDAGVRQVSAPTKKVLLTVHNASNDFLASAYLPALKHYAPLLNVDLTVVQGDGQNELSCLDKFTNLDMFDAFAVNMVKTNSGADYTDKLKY
T6 sequence (Q08255 36-403 D220A): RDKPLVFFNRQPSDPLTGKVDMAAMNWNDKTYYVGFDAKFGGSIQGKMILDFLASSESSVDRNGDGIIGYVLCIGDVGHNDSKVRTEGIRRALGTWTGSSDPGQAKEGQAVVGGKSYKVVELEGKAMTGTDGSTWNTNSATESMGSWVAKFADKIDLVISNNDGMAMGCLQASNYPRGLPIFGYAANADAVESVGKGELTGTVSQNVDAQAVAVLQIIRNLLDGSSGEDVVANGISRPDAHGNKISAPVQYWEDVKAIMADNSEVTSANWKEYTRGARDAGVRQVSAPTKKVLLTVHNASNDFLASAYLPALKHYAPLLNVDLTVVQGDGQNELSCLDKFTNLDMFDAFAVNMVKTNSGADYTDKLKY

**Q.** With `O=C[C@H](O)[C@@H](O)[C@@H](O)[C@H](O)CO` [D-galactose] as the compound, how does the “KD for D-galactose relative to that of D-glucose” value ([1]; wild-type TpMglB-2) read?
**A.** 30 fold

**Q.** And the “shift in Tm, app” value (TpMglB-2 [2])?
**A.** > 1.5 °C

**Q.** What about the Kd (TpMglB-2 [3]; read-out: equilibrium dissociation constant; similar TpMglB-2 construct, 20 mM NaCl; cited from earlier work) of the same compound?
**A.** 250 nM

**Q.** What does the source list for `O=C[C@H](O)[C@H](O)[C@H](O)CO` [D-ribose, reference compound]?
**A.** binding heats in ITC control titrations [1]: failed to exhibit any binding heats; binding in the DSF assay (TpMglB-2 [2]): failed to bind

**Q.** Which Kd ([1]; wild-type TpMglB-2, 10 mM sodium phosphate pH 7.4, 100 mM NaCl, 68.3% confidence intervals in brackets) does the source give for `OC[C@H]1OC(O)[C@H](O)[C@@H](O)[C@@H]1O` (stereo partly drawn) [D-glucose] here?
**A.** 1100 nM

**Q.** What about the “shift in Tm, app” value (TpMglB-2 [2]) of the same compound?
**A.** > 1.5 °C

**Q.** What about the KD (TpMglB-2 F313A) of the same compound?
**A.** NH

**Q.** What about the “KD for glucose binding of W145A relative to the wild-type protein” value (TpMglB-2 W145A) of the same compound?
**A.** tenfold higher

**Q.** What about the Kd (TpMglB-2 W145A; W145A variant, 68.3% confidence intervals in brackets) of the same compound?
**A.** 12700 nM

**Q.** What about the “Δs/s¯” value (TpMglB-2 [4]; D-glucose in sample sector vs D-mannose in reference sector) of the same compound?
**A.** about 0.0177 [0.0163, 0.0191]

**Q.** And the “Δs/s¯” value (TpMglB-2 [4]; D-glucose in sample sector vs D-ribose in reference sector)?
**A.** 0.0180 [0.0163, 0.0197]

**Q.** What about the “observed change in s (Δs/s¯ multiplied by the observed s, 3.2 S)” value (TpMglB-2 [4]; D-glucose vs non-binding sugar) of the same compound?
**A.** approximately 0.06 S

**Q.** And the Kd (TpMglB-2 [3]; similar TpMglB-2 construct, 20 mM NaCl; read-out: equilibrium dissociation constant; cited from earlier work)?
**A.** 150 nM

**Q.** And the KD (TpMglB-2 N19A)?
**A.** NH^b

**Q.** What about the “refined experimental s-value of TpMglB-2 in the presence of the sugar” value (TpMglB-2 [5]) of the same compound?
**A.** 3.292 [3.288–3.297] S

**Q.** And the KD (TpMglB-2 D195A)?
**A.** NH

**Q.** With `OC[C@H]1OC(O)[C@@H](O)[C@@H](O)[C@@H]1O` (stereo partly drawn) [D-Mannose, reference compound] as the compound, how does the “binding heats in ITC control titrations” value [1] read?
**A.** failed to exhibit any binding heats

**Q.** What about the “binding in the DSF assay” value (TpMglB-2 [2]) of the same compound?
**A.** failed to bind
